Laboratory results published in ChEMBL document CHEMBL1132755, “First enantiospecific synthesis of a 3,4-dihydroxy-L-glutamic acid [(3S,4S)-DHGA], a new mGluR1 agonist” (Bioorg Med Chem Lett, 2000).

Columns and labels:
[1] = molecular target: Metabotropic glutamate receptor 4 (Homo sapiens) (UniProt Q14833); experiment: Tested for inhibition of glutamate induced stimulation of Metabotropic glutamate receptor 4 in HEK 293 cells; assay type: functional, cell-based; conditions: HEK293; concentration not given here
Chain of Metabotropic glutamate receptor 4 (Homo sapiens) (Q14833 whole entry): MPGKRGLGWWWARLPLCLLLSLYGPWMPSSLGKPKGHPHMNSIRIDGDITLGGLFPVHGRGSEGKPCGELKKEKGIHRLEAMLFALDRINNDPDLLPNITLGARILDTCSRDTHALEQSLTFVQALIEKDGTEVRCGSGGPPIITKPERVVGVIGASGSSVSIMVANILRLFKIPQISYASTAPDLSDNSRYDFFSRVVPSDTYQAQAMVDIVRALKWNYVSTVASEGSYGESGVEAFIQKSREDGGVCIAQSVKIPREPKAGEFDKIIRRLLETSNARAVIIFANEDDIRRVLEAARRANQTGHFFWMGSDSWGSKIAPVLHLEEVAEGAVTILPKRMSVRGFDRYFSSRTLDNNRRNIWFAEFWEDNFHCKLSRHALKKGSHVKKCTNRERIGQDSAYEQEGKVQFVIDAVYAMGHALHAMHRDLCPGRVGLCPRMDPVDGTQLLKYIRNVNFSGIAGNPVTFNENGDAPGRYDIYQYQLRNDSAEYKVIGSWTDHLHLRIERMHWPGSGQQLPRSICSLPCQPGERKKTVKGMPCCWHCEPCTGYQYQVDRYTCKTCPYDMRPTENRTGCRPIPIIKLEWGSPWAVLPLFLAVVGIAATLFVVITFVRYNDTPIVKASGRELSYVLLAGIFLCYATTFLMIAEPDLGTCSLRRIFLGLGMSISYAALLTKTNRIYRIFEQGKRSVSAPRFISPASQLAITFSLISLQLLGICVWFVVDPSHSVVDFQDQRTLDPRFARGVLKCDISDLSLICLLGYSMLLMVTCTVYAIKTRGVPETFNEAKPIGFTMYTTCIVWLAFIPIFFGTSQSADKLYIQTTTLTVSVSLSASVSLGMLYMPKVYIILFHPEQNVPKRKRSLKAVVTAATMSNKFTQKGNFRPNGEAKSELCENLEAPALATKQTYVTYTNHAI

[2] = molecular target: Metabotropic glutamate receptor 1 (Homo sapiens, UniProt Q13255); experiment: Effect of compound on Metabotropic glutamate receptor 1 expressed in HEK 293 cells was determined by measuring IP production relative to glutamate; assay type: functional, cell-based, HEK293
Chain of Metabotropic glutamate receptor 1 (Q13255 whole entry): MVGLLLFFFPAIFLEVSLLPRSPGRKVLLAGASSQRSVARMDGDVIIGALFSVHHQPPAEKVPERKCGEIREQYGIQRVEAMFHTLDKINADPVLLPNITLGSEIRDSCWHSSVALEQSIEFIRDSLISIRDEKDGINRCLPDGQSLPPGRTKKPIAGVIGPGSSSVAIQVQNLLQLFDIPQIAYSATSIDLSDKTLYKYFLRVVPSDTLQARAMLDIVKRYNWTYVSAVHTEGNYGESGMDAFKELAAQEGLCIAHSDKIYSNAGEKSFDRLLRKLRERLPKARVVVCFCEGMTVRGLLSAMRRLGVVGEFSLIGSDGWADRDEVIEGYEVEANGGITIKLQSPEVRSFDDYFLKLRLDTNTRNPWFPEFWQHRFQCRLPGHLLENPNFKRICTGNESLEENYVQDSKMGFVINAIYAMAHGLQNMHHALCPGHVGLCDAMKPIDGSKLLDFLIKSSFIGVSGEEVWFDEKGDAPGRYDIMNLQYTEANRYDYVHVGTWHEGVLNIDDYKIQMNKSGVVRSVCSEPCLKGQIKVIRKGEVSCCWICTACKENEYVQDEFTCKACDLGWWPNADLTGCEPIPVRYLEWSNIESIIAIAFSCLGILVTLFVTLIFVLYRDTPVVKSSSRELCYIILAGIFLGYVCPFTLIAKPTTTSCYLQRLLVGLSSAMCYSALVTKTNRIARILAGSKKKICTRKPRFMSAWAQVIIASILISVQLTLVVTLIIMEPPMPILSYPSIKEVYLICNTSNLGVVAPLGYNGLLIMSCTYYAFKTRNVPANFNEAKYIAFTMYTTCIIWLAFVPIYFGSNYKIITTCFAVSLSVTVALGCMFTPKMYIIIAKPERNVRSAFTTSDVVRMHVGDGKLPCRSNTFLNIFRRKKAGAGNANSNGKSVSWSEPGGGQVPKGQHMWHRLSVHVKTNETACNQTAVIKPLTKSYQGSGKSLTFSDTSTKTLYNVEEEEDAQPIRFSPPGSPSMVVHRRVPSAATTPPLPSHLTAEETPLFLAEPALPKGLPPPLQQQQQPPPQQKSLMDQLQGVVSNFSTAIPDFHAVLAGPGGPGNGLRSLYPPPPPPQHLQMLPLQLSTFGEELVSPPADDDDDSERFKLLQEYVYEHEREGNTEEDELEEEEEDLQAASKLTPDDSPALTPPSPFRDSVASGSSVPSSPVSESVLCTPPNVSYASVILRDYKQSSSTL

[3] = molecular target: Metabotropic glutamate receptor 2 (Homo sapiens) (UniProt Q14416); experiment: Tested for inhibition of glutamate induced stimulation of Metabotropic glutamate receptor 2 in HEK 293ells; assay type: functional, cell-based; conditions: HEK293; concentration not given here
Chain of Metabotropic glutamate receptor 2 (Homo sapiens) (Q14416 19-872 limits assumed): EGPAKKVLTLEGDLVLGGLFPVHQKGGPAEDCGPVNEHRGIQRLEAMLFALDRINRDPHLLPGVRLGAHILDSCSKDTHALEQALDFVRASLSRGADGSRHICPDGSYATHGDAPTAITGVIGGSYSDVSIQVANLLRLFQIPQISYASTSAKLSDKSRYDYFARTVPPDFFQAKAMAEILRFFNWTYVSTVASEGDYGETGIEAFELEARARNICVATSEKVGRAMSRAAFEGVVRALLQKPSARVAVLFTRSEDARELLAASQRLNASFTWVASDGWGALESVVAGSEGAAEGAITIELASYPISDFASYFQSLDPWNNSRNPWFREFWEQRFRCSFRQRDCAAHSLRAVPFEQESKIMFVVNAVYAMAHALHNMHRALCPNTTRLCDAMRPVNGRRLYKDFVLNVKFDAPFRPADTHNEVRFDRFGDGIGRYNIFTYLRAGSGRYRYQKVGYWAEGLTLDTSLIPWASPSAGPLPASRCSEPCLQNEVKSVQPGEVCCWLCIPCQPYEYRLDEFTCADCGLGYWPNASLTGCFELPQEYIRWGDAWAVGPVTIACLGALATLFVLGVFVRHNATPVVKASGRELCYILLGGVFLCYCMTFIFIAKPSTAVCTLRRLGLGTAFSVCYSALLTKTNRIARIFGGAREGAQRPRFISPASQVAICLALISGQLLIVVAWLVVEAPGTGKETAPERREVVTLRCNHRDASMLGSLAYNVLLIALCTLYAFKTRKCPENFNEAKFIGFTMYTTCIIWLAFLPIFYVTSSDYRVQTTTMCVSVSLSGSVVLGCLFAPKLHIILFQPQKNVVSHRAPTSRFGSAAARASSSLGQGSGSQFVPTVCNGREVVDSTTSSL

inhibition [1]: 57%
EC50 [2]: 257 µM
inhibition [3]: 29%
SMILES: N[C@H](C(=O)O)[C@H](O)[C@H](O)C(=O)O
